Assay results: US20250353853A1, “FLAVIVIRUS INHIBITORS” (IRBM S.P.A., priority 2022, published 2025)
Counter-ions that a name gives are not always drawn.

test system: ZIKV replicon in Vero cells; test: ZIKV Replication Inhibition Assay (replicon, NanoLuc); conditions: Zika virus, Vero, 72 h, read-out: Zika Replicon EC50

Structure (SMILES)	EC50
NC[C@H](Cc1ccccc1)[n+]1cc([N-]C(=O)Nc2cccc(C(F)(F)F)c2)on1 [Example 54, (S)-(3-(1-amino-3-phenylpropan-2-yl)-1,2,3-oxadiazol-3-ium-5-yl)((3-(trifluoromethyl)phenyl)carbamoyl)amide formate]	> 20 µM
O=C([N-]c1c[n+](Cc2ccc(-c3ccc(CN4CCOCC4)cc3)cc2)no1)Nc1cccc(C(F)(F)F)c1 [Example 56, (3-((4′-(morpholinomethyl)-[1,1′-biphenyl]-4-yl)methyl)-1,2,3-oxadiazol-3-ium-5-yl)((3-(trifluoromethyl)phenyl)carbamoyl)amide]	1 to 20 µM
NC[C@H](Cc1ccc(-c2ccccc2)cc1)[n+]1cc([N-]C(=O)Nc2cccc(C(F)(F)F)c2)on1 [Example 65, (S)-(3-(1-([1,1′-biphenyl]-4-yl)-3-aminopropan-2-yl)-1,2,3-oxadiazol-3-ium-5-yl)((3-(trifluoromethyl)phenyl)carbamoyl)amide formate]	1 to 20 µM
NC[C@@H](Cc1ccc(-c2ccccc2)cc1)[n+]1cc([N-]C(=O)Nc2cccc(C(F)(F)F)c2)on1 [Example 66, (R)-(3-(1-([1,1′-biphenyl]-4-yl)-3-aminopropan-2-yl)-1,2,3-oxadiazol-3-ium-5-yl)((3-(trifluoromethyl)phenyl)carbamoyl)amide]	1 to 20 µM
CC(=O)NC[C@H](Cc1ccc(-c2ccccc2)cc1)[n+]1cc([N-]C(=O)Nc2cccc(C(F)(F)F)c2)on1 [Example 70, (S)-(3-(1-(1,1′-biphenyl-4-yl)-3-acetamidopropan-2-yl)-1,2,3-oxadiazol-3-ium-5-yl)((3-(trifluoromethyl)phenyl)carbamoyl)amide]	> 20 µM
CC(=O)NC[C@@H](Cc1ccc(-c2ccccc2)cc1)[n+]1cc([N-]C(=O)Nc2cccc(C(F)(F)F)c2)on1 [Example 71, (R)-(3-(1-([1,1′-biphenyl]-4-yl)-3-acetamidopropan-2-yl)-1,2,3-oxadiazol-3-ium-5-yl)((3-(trifluoromethyl)phenyl)carbamoyl)amide]	> 20 µM
C[C@@H](c1ccc(Br)cc1)[n+]1cc([N-]C(=O)Nc2cncc(C(F)(F)F)c2)on1 [Example 76, (S)-(3-(1-(4-bromophenyl)ethyl)-1,2,3-oxadiazol-3-ium-5-yl)((5-(trifluoromethyl)pyridin-3-yl)carbamoyl)amide]	0.1 to 1 µM
C[C@@H](c1ccc(-c2cncnc2)cc1)[n+]1cc([N-]C(=O)Nc2cncc(C(F)(F)F)c2)on1 [Example 77, (S)-(3-(1-(4-(pyrimidin-5-yl)phenyl)ethyl)-1,2,3-oxadiazol-3-ium-5-yl)((5-(trifluoromethyl)pyridin-3-yl)carbamoyl)amide]	0.1 to 1 µM
Cc1noc(C)c1-c1ccc(C[n+]2cc([N-]C(=O)Nc3cccc(C(F)(F)F)c3)on2)cc1 [Example 78, (3-(4-(3,5-dimethylisoxazol-4-yl)benzyl)-1,2,3-oxadiazol-3-ium-5-yl)((3-(trifluoromethyl)phenyl)carbamoyl)amide]	< 0.1 µM
Cc1ncncc1-c1ccc([C@H](C)[n+]2cc([N-]C(=O)Nc3cccc(C(F)(F)F)c3)on2)cc1 [Example 79, (S)-(3-(1-(4-(4-methylpyrimidin-5-yl)phenyl)ethyl)-1,2,3-oxadiazol-3-ium-5-yl)((3-(trifluoromethyl)phenyl)carbamoyl)amide]	< 0.1 µM
O=C([N-]c1c[n+](Cc2ccc(-c3cncnc3C(F)(F)F)cc2)no1)Nc1cccc(C(F)(F)F)c1 [Example 80, ((3-(trifluoromethyl)phenyl)carbamoyl)(3-(4-(4-(trifluoromethyl)pyrimidin-5-yl)benzyl)-1,2,3-oxadiazol-3-ium-5-yl)amide]	< 0.1 µM
Cc1ncnc(C)c1-c1ccc(C[n+]2cc([N-]C(=O)Nc3cccc(C(F)(F)F)c3)on2)cc1 [Example 81, (3-(4-(4,6-dimethylpyrimidin-5-yl)benzyl)-1,2,3-oxadiazol-3-ium-5-yl)((3-(trifluoromethyl)phenyl)carbamoyl)amide]	< 0.1 µM
Cc1ncncc1-c1ccc([C@@H](C)[n+]2cc([N-]C(=O)Nc3cccc(C(F)(F)F)c3)on2)cc1 [Example 82, (R)-(3-(1-(4-(4-methylpyrimidin-5-yl)phenyl)ethyl)-1,2,3-oxadiazol-3-ium-5-yl)((3-(trifluoromethyl)phenyl)carbamoyl)amide]	0.1 to 1 µM
Cc1ncncc1-c1cccc(C[n+]2cc([N-]C(=O)Nc3cccc(C(F)(F)F)c3)on2)c1 [Example 83, (3-(3-(4-methylpyrimidin-5-yl)benzyl)-1,2,3-oxadiazol-3-ium-5-yl)((3-(trifluoromethyl)phenyl)carbamoyl)amide]	0.1 to 1 µM
COc1ncncc1-c1cccc(C[n+]2cc([N-]C(=O)Nc3cccc(C(F)(F)F)c3)on2)c1 [Example 84, (3-(3-(4-methoxypyrimidin-5-yl)benzyl)-1,2,3-oxadiazol-3-ium-5-yl)((3-(trifluoromethyl)phenyl)carbamoyl)amide]	0.1 to 1 µM
Cc1ccncc1-c1ccc(C[n+]2cc([N-]C(=O)Nc3cccc(C(F)(F)F)c3)on2)cc1 [Example 85, (3-(4-(4-methylpyridin-3-yl)benzyl)-1,2,3-oxadiazol-3-ium-5-yl)((3-(trifluoromethyl)phenyl)carbamoyl)amide]	< 0.1 µM
Cc1nccnc1-c1ccc(C[n+]2cc([N-]C(=O)Nc3cccc(C(F)(F)F)c3)on2)cc1 [Example 86, (3-(4-(3-methylpyrazin-2-yl)benzyl)-1,2,3-oxadiazol-3-ium-5-yl)((3-(trifluoromethyl)phenyl)carbamoyl)amide]	0.1 to 1 µM
Cc1cc(C[n+]2cc([N-]C(=O)Nc3cccc(C(F)(F)F)c3)on2)ccc1-c1cncnc1 [Example 87, (3-(3-methyl-4-(pyrimidin-5-yl)benzyl)-1,2,3-oxadiazol-3-ium-5-yl)((3-(trifluoromethyl)phenyl)carbamoyl)amide]	0.1 to 1 µM
Cc1cc(C[n+]2cc([N-]C(=O)Nc3cccc(C(F)(F)F)c3)on2)ccc1-c1c(C)noc1C [Example 88, (3-(4-(3,5-Dimethylisoxazol-4-yl)-3-methylbenzyl)-1,2,3-oxadiazol-3-ium-5-yl)((3-(trifluoromethyl)phenyl)carbamoyl)amide]	< 0.1 µM
Cc1nc(OCCO)ncc1-c1ccc(C[n+]2cc([N-]C(=O)Nc3cccc(C(F)(F)F)c3)on2)cc1 [Example 89, (3-(4-(2-(2-hydroxyethoxy)-4-methylpyrimidin-5-yl)benzyl)-1,2,3-oxadiazol-3-ium-5-yl)((3-(trifluoromethyl)phenyl)carbamoyl)amide]	0.1 to 1 µM
COc1ncc(-c2ccc(C[n+]3cc([N-]C(=O)Nc4cccc(C(F)(F)F)c4)on3)cc2)c(C)n1 [Example 90, (3-(4-(2-Methoxy-4-methylpyrimidin-5-yl)benzyl)-1,2,3-oxadiazol-3-ium-5-yl)((3-(trifluoromethyl)phenyl)carbamoyl)amide]	< 0.1 µM
O=C([N-]c1c[n+](Cc2ccc(-c3cncnc3C3CC3)cc2)no1)Nc1cccc(C(F)(F)F)c1 [Example 91, (3-(4-(4-cyclopropylpyrimidin-5-yl)benzyl)-1,2,3-oxadiazol-3-ium-5-yl)((3-(trifluoromethyl)phenyl)carbamoyl)amide]	0.1 to 1 µM
Cc1ncccc1-c1ccc(C[n+]2cc([N-]C(=O)Nc3cccc(C(F)(F)F)c3)on2)cc1 [Example 92, (3-(4-(2-methylpyridin-3-yl)benzyl)-1,2,3-oxadiazol-3-ium-5-yl)((3-(trifluoromethyl)phenyl)carbamoyl)amide]	< 0.1 µM
